Test results from the NIST ThermoML archive (doi:10.1021/je060170c).

Test: xn = mol fraction of the nth substance listed
Conditions: 101 kPa, Liquid; for viscosity: Anton Paar Stabinger viscometer

COc1ccccc1 [anisole] + Cc1ccccc1C
Conditions | mass density [kg/m3] | speed of sound [m/s] | viscosity [mPa·s]
288.15 K, x1 = 0.0915 | 893.348 | 1395 | 0.885
288.15 K, x1 = 0.198 | 905.888 | 1402.3 | 0.914
288.15 K, x1 = 0.368 | 924.439 | 1409 | 0.944
288.15 K, x1 = 0.4954 | 938.936 | 1415.7 | 0.979
288.15 K, x1 = 0.6554 | 957.421 | 1424.7 | 1.028
288.15 K, x1 = 0.766 | 970.279 | 1431.2 | 1.066
288.15 K, x1 = 0.868 | 982.607 | 1439.4 | 1.133
288.15 K, x1 = 0.916 | 988.769 | 1444.5 | 1.159
288.15 K, x1 = 0.949 | 992.756 | 1447.1 | 1.172
288.15 K, x1 = 1 | 998.44 | 1449.1 | 1.188
293.15 K, x1 = 0.0915 | 889.076 | 1374.4 | 0.821
293.15 K, x1 = 0.198 | 900.83 | 1381.7 | 0.844
293.15 K, x1 = 0.368 | 919.973 | 1388.3 | 0.868
293.15 K, x1 = 0.4954 | 934.513 | 1394.9 | 0.899
293.15 K, x1 = 0.6554 | 953.102 | 1403.9 | 0.942
293.15 K, x1 = 0.766 | 966.072 | 1410.4 | 0.975
293.15 K, x1 = 0.868 | 978.09 | 1418.6 | 1.035
293.15 K, x1 = 0.916 | 983.748 | 1424 | 1.058
293.15 K, x1 = 0.949 | 987.635 | 1426.6 | 1.072
293.15 K, x1 = 1 | 993.649 | 1428.5 | 1.084
298.15 K, x1 = 0.0915 | 885.509 | 1354 | 0.769
298.15 K, x1 = 0.198 | 897.159 | 1359.5 | 0.79
298.15 K, x1 = 0.368 | 916.136 | 1368.6 | 0.813
298.15 K, x1 = 0.4954 | 930.569 | 1375.7 | 0.841
298.15 K, x1 = 0.6554 | 948.998 | 1385.1 | 0.881
298.15 K, x1 = 0.766 | 961.882 | 1391.9 | 0.914
298.15 K, x1 = 0.868 | 973.792 | 1398.6 | 0.974
298.15 K, x1 = 0.916 | 979.418 | 1402 | 0.996
298.15 K, x1 = 0.949 | 983.27 | 1404.3 | 1.005
298.15 K, x1 = 1 | 989.104 | 1408 | 1.017
303.15 K, x1 = 0.0915 | 880.756 | 1333.4 | 0.718
303.15 K, x1 = 0.198 | 892.435 | 1339.3 | 0.735
303.15 K, x1 = 0.368 | 911.407 | 1348.8 | 0.753
303.15 K, x1 = 0.4954 | 925.824 | 1355.9 | 0.776
303.15 K, x1 = 0.6554 | 944.269 | 1365.2 | 0.811
303.15 K, x1 = 0.766 | 957.177 | 1371.8 | 0.84
303.15 K, x1 = 0.868 | 969.125 | 1378.1 | 0.893
303.15 K, x1 = 0.916 | 974.761 | 1381.2 | 0.912
303.15 K, x1 = 0.949 | 978.63 | 1383.3 | 0.922
303.15 K, x1 = 1 | 984.372 | 1386.7 | 0.931
